Experimental data published in patent US20120219952A1, “CARBAPENEMASE AND ANTIBACTERIAL TREATMENT” (priority 2009, published 2012).

Tests used:
[1] = tested on: P. stutzeri clinical isolate 13; assay: Routine antibiogram by disk diffusion assay; format: cell-based, Pseudomonas stutzeri; conditions: clinical isolate P. stutzeri 13 expressing DIM-1
Procedure: Bacterial strains. P. stutzeri clinical isolate 13 was identified with the API-20 NE system (BioMérieux, Marcy l'Etoile, France), and confirmed by rRNA sequencing. Escherichia coli TOP10 (In Vitrogen, Carlsbad, Calif.)was the host for cloning experiments (Poirel et al., 2001)
(§1) Susceptibility testing. Antibiotic-containing disks were used for routine antibiograms by the disk diffusion assay (Sanofi-Diagnostic Pasteur, Marnes-la-Coquette, France). The ESBL double-disk synergy test was performed with disks containing ceftazidime or cefepime and ticarcillin-clavulanic acid on Mueller-Hinton agar plates, and the results were interpreted as described previously (Poirel, Le Thomas et al., 2000). The carbapenemase detection was performed by using Etest carbapenem-containing strips (AB Biodisk, Solna, Sweden).

[2] = molecular target: carbapenemase DIM-1 (Stutzerimonas stutzeri, UniProt D5JGF6); assay: Kinetic measurements with purified carbapenemase (hydrolysis of β-lactams); format: biochemical, P. stutzeri; conditions: purified DIM-1, 30° C., 100 mM sodium phosphate pH 7.0
From the text: (§2) Carbapenemase purification and isoelectric focusing (IEF) analysis. […] Carbapenemase was purified by ion-exchange chromatography.

[3] = tested on: P. stutzeri 13; assay: MICs by agar dilution technique; format: cell-based, Pseudomonas stutzeri; conditions: for β-lactam susceptibility from MICs: agar dilution, 37° C., 18 h; for restoration of susceptibility to penicillins on addition of inhibitor: clavulanic acid 2 μg/ml, tazobactam 4 μg/ml
Procedure: (§3) MICs were determined by an agar dilution technique with Mueller-Hinton agar (Sanofi-Diagnostic Pasteur) with an inoculum of 10^4 CFU/ml, as described previously (Poirel, Le Thomas et al., 2000). All plates were incubated at 37° C. for 18 h at ambient atmosphere. MICs of β-lactams were determined alone or in combination with a fixed concentration of clavulanic acid (2 μg/ml), tazobactam (4 μg/ml), and sulbactam (4 μg/ml). MIC results were interpreted according to the guidelines of the National Committee for Clinical Laboratory Standards (NCCLS) (CLSI).

[4] = tested on: E. coli DH10B(pXD-1); assay: MICs by agar dilution technique; format: cell-based, Escherichia coli; conditions: for β-lactam susceptibility from MICs: agar dilution, 37° C., 18 h; for restoration of susceptibility to penicillins on addition of inhibitor: clavulanic acid 2 μg/ml, tazobactam 4 μg/ml
Procedure: as §3

[5] = tested on: CC(C)(O/N=C(\C(=O)N[C@@H]1C(=O)N2C(C(=O)[O-])=C(C[n+]3ccccc3)CS[C@H]12)c1csc(N)n1)C(=O)O; assay: Kinetic measurements with purified carbapenemase (hydrolysis of β-lactams); format: biochemical, P. stutzeri; conditions: other: purified DIM-1, 30° C., 100 mM sodium phosphate pH 7.0
From the text: as §2

[6] = tested on: P. stutzeri 13; assay: Carbapenemase detection with Etest carbapenem-containing strips; format: cell-based, Pseudomonas stutzeri; conditions: imipenem alone vs with EDTA
Procedure: as §1

[7] = Specific activity of purified carbapenemase (imipenem hydrolysis); format: biochemical; conditions: purified enzyme; 1 U = 1 μmol of imipenem hydrolyzed per min per mg of protein
Procedure: The specific activity of the purified carbapenemase from E. coli DH10B(pXD-1) was obtained as described previously (Poirel et al., 1999). One unit of enzyme activity was defined as the activity which hydrolyzed 1 μmol of imipenem per min per mg of protein. The total protein content was measured with the DC Protein assay kit (Bio-Rad, Ivry-sur-Seine, France).

For `NC[C@H]1O[C@H](O[C@H]2[C@H](O)[C@@H](O[C@H]3O[C@H](CO)[C@@H](O)[C@H](N)[C@H]3O)[C@H](N)C[C@@H]2N)[C@H](N)C[C@@H]1O` [tobramycin], which “susceptibility of P. stutzeri 13” value [1] is on record?
Its value is “resistant”.

With `NCC[C@H](O)C(=O)N[C@@H]1C[C@H](N)[C@@H](O[C@H]2O[C@H](CN)[C@@H](O)[C@H](O)[C@H]2O)[C@H](O)[C@H]1O[C@H]1O[C@H](CO)[C@@H](O)[C@H](N)[C@H]1O` [amikacin] as the molecule, how does the “susceptibility of P. stutzeri 13” value [1] read?
Its value is “susceptible”.

Which “hydrolysis by DIM-1 (relative hydrolysis rates, substrate profile)” value [2] does the source give for `CO/N=C(\C(=O)N[C@@H]1C(=O)N2C(C(=O)O)=C(COC(C)=O)CS[C@H]12)c1csc(N)n1` [cefotaxime] here?
The value was “hydrolyzed at a similar level as benzylpenicillin”.

Which “β-lactam susceptibility from MICs” value [3] does the source give for `C[C@@H](O)[C@H]1C(=O)N2C(C(=O)O)=C(S[C@@H]3CN[C@H](C(=O)N(C)C)C3)[C@H](C)[C@H]12` [meropenem] here?
The value was “reduced susceptibility”.

What about the “β-lactam susceptibility from MICs” value [4] of the same molecule?
Its value is “reduced susceptibility”.

Which results are given for `CC(C)(O/N=C(\C(=O)N[C@@H]1C(=O)N2C(C(=O)[O-])=C(C[n+]3ccccc3)CS[C@H]12)c1csc(N)n1)C(=O)O` [ceftazidime]?
susceptibility of P. stutzeri 13 [1]: reduced susceptibility; hydrolysis by DIM-1 (relative hydrolysis rates, substrate profile) [2]: well hydrolyzed

Which “susceptibility of P. stutzeri 13” value [1] does the source give for `CCN[C@@H]1C[C@H](N)[C@@H](O[C@H]2OC(CN)=CC[C@H]2N)[C@H](O)[C@H]1O[C@H]1OC[C@](C)(O)[C@H](NC)[C@H]1O` [netilmicin] here?
Its value is “susceptible”.

For `CO/N=C(\C(=O)N[C@@H]1C(=O)N2C(C(=O)[O-])=C(C[n+]3cccc4c3CCC4)CS[C@H]12)c1csc(N)n1` [cefpirome], which “susceptibility of P. stutzeri 13” value [1] is on record?
Its value is “reduced susceptibility”.

Which “susceptibility of P. stutzeri 13” value [1] does the source give for gentamicin here?
Its value is “resistant”.

With “carbapenemase DIM-1 (Stutzerimonas stutzeri)” as the molecule, how does the Km [5] read?
Its Km is 50 µM.

With `CC1(C)S[C@@H]2[C@H](NC(=O)[C@H](C(=O)O)c3ccsc3)C(=O)N2[C@H]1C(=O)O` [ticarcillin] as the molecule, how does the “susceptibility of P. stutzeri 13” value [1] read?
The value was “resistant”.

Which “susceptibility of P. stutzeri 13” value [1] does the source give for colistin here?
The value was “susceptible”.

Which “MIC (carbapenem-containing E-test)” value [6] does the source give for `C[C@@H](O)[C@H]1C(=O)N2C(C(=O)O)=C(SCCN=CN)C[C@H]12` [imipenem] here?
The value was 64 mg/L.

With `CO/N=C(\C(=O)N[C@@H]1C(=O)N2C(C(=O)[O-])=C(C[N+]3(C)CCCC3)CS[C@H]12)c1csc(N)n1` [cefepime] as the molecule, how does the “susceptibility of P. stutzeri 13” value [1] read?
The value was “reduced susceptibility”.

With `CO[C@@]1(NC(=O)Cc2cccs2)C(=O)N2C(C(=O)O)=C(COC(N)=O)CS[C@@H]21` [cefoxitin] as the molecule, how does the “hydrolysis by DIM-1 (relative hydrolysis rates, substrate profile)” value [2] read?
Its value is “good substrate”.

With `CCN1CCN(C(=O)N[C@@H](C(=O)N[C@@H]2C(=O)N3[C@@H]2SC(C)(C)[C@@H]3C(=O)O)c2ccccc2)C(=O)C1=O` [piperacillin] as the molecule, how does the “susceptibility of P. stutzeri 13” value [1] read?
The value was “resistant”.

For `O=C(O)[C@H]1/C(=C/CO)O[C@@H]2CC(=O)N21` [clavulanic acid], which “restoration of susceptibility to penicillins on addition of inhibitor” value (“restoration of susceptibility … of inhibitor” for short) [3] is on record?
The value was “did not restore any susceptibility to penicillins”.

What about the “restoration of susceptibility … of inhibitor” value [4] of the same molecule?
The value was “did not restore any susceptibility to penicillins”.

With piperacillin-tazobactam as the molecule, how does the “susceptibility of P. stutzeri 13” value [1] read?
Its value is “resistant”.

With `C[C@]1(Cn2ccnn2)[C@H](C(=O)O)N2C(=O)C[C@H]2S1(=O)=O` [tazobactam] as the molecule, how does the “restoration of susceptibility … of inhibitor” value [3] read?
Its value is “did not restore any susceptibility to penicillins”.

What about the “restoration of susceptibility … of inhibitor” value [4] of the same molecule?
Its value is “did not restore any susceptibility to penicillins”.

Which “susceptibility of P. stutzeri 13” value [1] does the source give for `O=C(N[C@H](CO)[C@H](O)c1ccc([N+](=O)[O-])cc1)C(Cl)Cl` [chloramphenicol] here?
Its value is “resistant”.

Which results are given for `C[C@H]1[C@H](NC(=O)/C(=N\OC(C)(C)C(=O)O)c2csc(N)n2)C(=O)N1S(=O)(=O)O` [aztreonam]?
susceptibility of P. stutzeri 13 [1]: fully susceptible; β-lactam susceptibility from MICs [3]: spared; β-lactam susceptibility from MICs [4]: spared; hydrolysis by DIM-1 (relative hydrolysis rates, substrate profile) [2]: excluding

B1: DIM-1: Ambler class B carbapenemase (Dutch IMipenemase) from P. stutzeri 13, SEQ ID NO:1 (protein, listed as Pseudomonas stutzeri)
chain: MRTHFTALLLLFSLSSLANDEVPELRIEKVKENIFLHTSYSRVNGFGLVSSNGLVVIDKGNAFIVDTPWSDRDTETLVHWIRKNGYELLGSVSTHWHEDRTAGIKWLNDQSISTYATTSTNHLLKENKKEPAKYTLKGNESTLVDGLIEVFYPGGGHTIDNVVVWLPKSKILFGGCFVRSLDSEGLGYTGEAHIDQWSRSAQNALSRYSEAQIVIPGHGKIGDIALLKHTKSLAETASNKSIQPNANASAD
With B1 as the molecule, how does the specific activity [7] read?
The specific activity was 21 U.mg of protein^−1.
